Test in all cases: growth of human tumour cells (NCI), 48 h
Experiment [1] deals with HOP-62 NSCLC.
Experiment [2] has as its system SF-295 CNS.
In experiment [3] the test system is MALME-3M melanoma.
The test system of experiment [4] is MCF7 breast.
Experiment [5] deals with LOX IMVI melanoma.
The subject of experiment [6] is ACHN renal.
The subject of experiment [7] is K-562 leukemia.
Experiment [8] has as its system KM12 colon.
For experiment [9], the system named is HOP-92 NSCLC.
The subject of experiment [10] is NCI-H23 lung.

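The compound was tested at five concentrations on cells cultured in 96-well plates, with a 48-hour exposure period. GI50 = concentration required for 50% inhibition of growth. The concentration for full growth arrest is given as TGI.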

`O=C1C(Cl)=C(Nc2ccc3cn[nH]c3c2)C(=O)c2ccccc21`: the GI50 is 2.15 µM in [1]; 1.67 µM in experiment [2]; 0.666 µM in experiment [3]; 1.09 µM in experiment [4]; 0.562 µM in experiment [5]; 1.33 µM in [6]. For the same molecule, the GI50 in experiment [7] is 0.526 µM; in experiment [8], 3.23 µM; in experiment [9] it was 1.57 µM; in [10] it was 0.413 µM. Moreover, the TGI in experiment [1] stood at 5.29 µM; in experiment [2], 4.14 µM; in [3], 1.95 µM; in experiment [4], 2.58 µM; in experiment [5], 1.92 µM; in experiment [6] it was 2.61 µM. For the same molecule, the TGI in [7] is 2.06 µM; in experiment [8] it was 14.7 µM; in experiment [9], 3 µM; in [10] it was 1.81 µM.

Turning to `O=C(O)CCC1COc2ccccc2O1` (stereo not given), the TGI in [1], in experiment [2], in experiment [3], in [4], in experiment [5] and in experiment [6] was above 10 µM each time. For the same molecule, the TGI in [7], in experiment [8], in experiment [9] and in experiment [10] was above 10 µM in each case.

Turning to `NCCNCC(O)CO` (stereo not given), the TGI in experiment [1], in [2], in experiment [3], in experiment [4], in [5] and in experiment [6] was above 100 µM each time. The TGI in [7], in [8], in [9] and in [10] was above 100 µM throughout.

For `COC(=O)c1ccccc1NC(=O)C(=O)CC(=O)c1ccccc1NC1=CC(=O)C(=O)c2ccccc21`, the TGI in experiment [1] was above 74.8 µM; in experiment [2], above 49.8 µM; in experiment [3], 11.1 µM; in [4], 25.5 µM; in experiment [5], 4.76 µM; in experiment [6], 59.5 µM. The TGI in experiment [7] was above 100 µM; in experiment [8] it was 52.8 µM; in experiment [9] it was 32.5 µM; in [10], 24 µM.

In the case of `O=C(Oc1ccc([N+](=O)[O-])cc1)N1CCN(Cc2cccc(Oc3ccccc3)c2)CC1`, the GI50 in experiment [1] is above 100 µM; in experiment [2] it was 62.9 µM; in [3] it was above 95.3 µM; in [4] it was 37.1 µM; in [5] it was above 82.6 µM; in experiment [6], above 100 µM. Besides, the GI50 in [7] was 34.1 µM; in [8], 62.5 µM; in experiment [9], 18.2 µM; in experiment [10], above 71.9 µM. The TGI in experiment [1], in experiment [2], in experiment [3], in experiment [4], in experiment [5] and in experiment [6] was above 100 µM in each case. For the same molecule, the TGI in experiment [7], in [8], in [9] and in experiment [10] was above 100 µM throughout.

In the case of `COC(=O)[C@]12CC[C@@H](C)[C@H](C)[C@@H]1C1=CC[C@@H]3[C@@]4(C)C(C=O)=C[C@@](C)(COC(C)=O)[C@@H]4[C@H](O)C[C@@]3(C)[C@]1(C)CC2`, the GI50 was 2.74 µM in experiment [1]; 1.67 µM in experiment [2]; 1.76 µM in experiment [3]; 1.94 µM in experiment [4]; 1.57 µM in [5]; 1.92 µM in experiment [6]. The GI50 is 3.57 µM in experiment [7], 2.35 µM in experiment [8], 1.65 µM in [9] and 2.76 µM in experiment [10]. In addition, the TGI in experiment [1] came out at 6.04 µM; in experiment [2], 3.54 µM; in [3], 3.63 µM; in experiment [4], 5.51 µM; in experiment [5] it was 2.91 µM; in experiment [6], 4.32 µM. Also, the TGI was found to be 9.77 µM in [7], 6.93 µM in experiment [8], 4.28 µM in experiment [9] and 7.35 µM in experiment [10].

As for `COc1cc(/C=C/C(=O)c2cc(F)c(Cl)cc2Cl)cc(OC)c1OC`, the GI50 is 82.2 µM in experiment [1]; 44.4 µM in [2]; 10.8 µM in experiment [3]; 32.3 µM in experiment [4]; 25.1 µM in experiment [5]; 60.6 µM in experiment [6]. Moreover, the GI50 was 11.4 µM in [7], 10.5 µM in [8], 25.9 µM in [9] and 34.2 µM in [10]. Moreover, the TGI in experiment [1] is above 100 µM; in experiment [2], above 100 µM; in [3], 37.7 µM; in experiment [4], above 100 µM; in experiment [5], 91.2 µM; in experiment [6], above 100 µM. The TGI in [7] is 27.7 µM; in [8], 26.4 µM; in [9], above 100 µM; in experiment [10] it was above 100 µM.

On to `COc1cc2c3c(n(CCCN4CCN(C)CC4)c(=O)c2cc1OC)-c1cc2c(cc1C3=O)OCO2`, for which the GI50 in experiment [1] was 18 µM; in experiment [2], 10.7 µM; in experiment [3] it was 24.8 µM; in experiment [4] it was 8.82 µM; in [5], 3.81 µM; in experiment [6], 10.1 µM. Besides, the GI50 in [7] was 6.49 µM; in [8], 12.8 µM; in experiment [9] it was 19.8 µM; in [10], 11.9 µM. Moreover, the TGI in [1] is 95.8 µM; in experiment [2], 31.7 µM; in [3], 42.3 µM; in [4], 64.8 µM; in [5] it was 20.4 µM; in experiment [6] it was 22.4 µM. Further, the TGI in [7] is 22 µM; in [8], 29 µM; in [9] it was 46.9 µM; in experiment [10], 24.1 µM.

Turning to `O=c1cccc(C#Cc2ccccc2)o1`, the GI50 is 4.63 µM in experiment [1]; 5.03 µM in [2]; 5.09 µM in experiment [3]; 4.37 µM in experiment [4]; 7.89 µM in experiment [5]; 7.7 µM in experiment [6]. The GI50 in experiment [7] was 40.4 µM; in [8], 5.05 µM; in experiment [9], 2.06 µM; in experiment [10], 4.42 µM. Further, the TGI was 15.4 µM in [1]; 13.8 µM in experiment [2]; 16.5 µM in experiment [3]; above 100 µM in experiment [4]; 30.1 µM in [5]; 21.5 µM in [6]. The TGI is above 100 µM in [7], 14.6 µM in experiment [8], 13.8 µM in [9] and 12.2 µM in experiment [10].

The values above are taken from PubChem BioAssay (NCI).
